Test results from patent publication US9073855B2, “BCL-2 selective apoptosis-inducing agents for the treatment of cancer and immune diseases” (AbbVie Inc., priority 2008, dated 2015).

Tests used:
GST-Bcl-2 = GST-Bcl-2 (Homo sapiens, UniProt P10415); assay: TR-FRET binding assay, GST-Bcl-2 with F-Bak peptide probe; conditions: TR-FRET Binding Affinity, GST-Bcl-2, F-Bak peptide probe
Method in brief: (§1)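 Displacement of a fluorescein-labelled Bak peptide from the GST-tagged protein was followed by time-resolved FRET with a terbium anti-GST donor after 3 h incubation at room temperature. Inhibition constants were calculated with Wang's equation.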

FL5.12/Bcl-2 cells = assay: FL5.12/Bcl-2 cell viability assay under IL-3 withdrawal (CellTitre Glo); type: cell-based, murine; conditions: Mus musculus, IL-3 withdrawn 48 hrs, then 24 hrs with compound
Method in brief: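 Murine IL-3-dependent FL5.12 cells stably overexpressing Bcl-2 were deprived of IL-3 (WEHI-3B conditioned medium omitted) for 48 hrs, then exposed to various compound concentrations for a further 24 hrs at 37° C, 5% CO2. Viability was read by CellTitre Glo luminescence.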

GST-Bcl-XL = GST-Bcl-XL (Homo sapiens, UniProt Q07817); assay: TR-FRET binding assay, GST-Bcl-XL with F-Bak peptide probe; conditions: TR-FRET Binding Affinity, GST-Bcl-XL, F-Bak peptide probe
Chain of GST-Bcl-XL (Q07817 whole entry): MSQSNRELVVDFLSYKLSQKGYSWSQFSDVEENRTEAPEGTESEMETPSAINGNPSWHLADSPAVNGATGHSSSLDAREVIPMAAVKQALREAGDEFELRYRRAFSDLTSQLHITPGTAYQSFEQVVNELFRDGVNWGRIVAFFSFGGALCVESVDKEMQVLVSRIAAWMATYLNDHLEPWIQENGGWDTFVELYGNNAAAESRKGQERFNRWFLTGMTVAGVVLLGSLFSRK
Method in brief: as §1

Chain of GST-Bcl-2 (P10415 whole entry): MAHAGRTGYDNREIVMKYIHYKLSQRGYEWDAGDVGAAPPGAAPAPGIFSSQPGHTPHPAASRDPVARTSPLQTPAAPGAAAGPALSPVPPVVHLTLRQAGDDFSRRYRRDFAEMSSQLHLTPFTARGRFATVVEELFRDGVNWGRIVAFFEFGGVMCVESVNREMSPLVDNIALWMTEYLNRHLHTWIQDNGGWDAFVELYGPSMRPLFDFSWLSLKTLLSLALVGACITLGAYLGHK

Row | SMILES | Ki (GST-Bcl-2) | EC50 (FL5.12/Bcl-2 cells) | Ki (GST-Bcl-XL)
1 | CC1(C)CCC(CN2CCN(c3ccc(C(=O)NS(=O)(=O)c4ccc(NC[C@H]5CCCO5)c([N+](=O)[O-])c4)c(Oc4ccc5[nH]ccc5c4)c3)CC2)=C(c2ccc(Cl)cc2)C1 [Example 370, 4-(4-{[2-(4-chlorophenyl)-4,4-dimethylcyclohex-1-en-1-yl]methyl}piperazin-1-yl)-2-(1H-indol-5-yloxy)-N-[(3-nitro-4-{[(2R)-tetrahydrofuran-2-ylmethyl]amino}phenyl)sulfonyl]benzamide] | 0.904 nM | 263 nM | > 660 nM
2 | CC(C1=C(c2ccc(Cl)cc2)CC(C)(C)CC1)N1CCN(c2ccc(C(=O)NS(=O)(=O)c3ccc(NN4CCN(C)CC4)c([N+](=O)[O-])c3)c(Oc3ccc4[nH]ccc4c3)c2)CC1 (stereo not drawn) [Example 254, 4-(4-{1-[2-(4-chlorophenyl)-4,4-dimethylcyclohex-1-en-1-yl]ethyl}piperazin-1-yl)-2-(1H-indol-5-yloxy)-N-({4-[(4-methylpiperazin-1-yl)amino]-3-nitrophenyl}sulfonyl)benzamide] | 0.126 nM | 16.9 nM | 53.3 nM
3 | O=C(NS(=O)(=O)c1ccc(NC2CCN(C3CCOCC3)CC2)c([N+](=O)[O-])c1)c1ccc(N2CCN(Cc3ccc(C(F)(F)F)cc3-c3ccc(Cl)cc3)CC2)cc1Oc1ccc2[nH]ccc2c1 [Example 358, 4-(4-{[4′-chloro-5-(trifluoromethyl)-1,1′-biphenyl-2-yl]methyl}piperazin-1-yl)-2-(1H-indol-5-yloxy)-N-({3-nitro-4-[(1-tetrahydro-2H-pyran-4-ylpiperidin-4-yl)amino]phenyl}sulfonyl)benzamide] | 5.42 nM | > 500 nM | > 660 nM
4 | CC1(C)CCC(CN2CCN(c3ccc(C(=O)NS(=O)(=O)c4ccc(NCC5CCS(=O)(=O)C5)c([N+](=O)[O-])c4)c(Oc4cccc5[nH]ccc45)c3)CC2)=C(c2ccc(Cl)cc2)C1 (stereo not drawn) [Example 326, 4-(4-{[2-(4-chlorophenyl)-4,4-dimethylcyclohex-1-en-1-yl]methyl}piperazin-1-yl)-N-[(4-{[(1,1-dioxidotetrahydrothien-3-yl)methyl]amino}-3-nitrophenyl)sulfonyl]-2-(1H-indol-4-yloxy)benzamide] | 0.116 nM | 35.1 nM | > 660 nM
5 | CC1(C)CCC(CN2CCN(c3ccc(C(=O)NS(=O)(=O)c4ccc(NC5CCCCC5N)c([N+](=O)[O-])c4)c(Oc4ccc5[nH]ccc5c4)c3)CC2)=C(c2ccc(Cl)cc2)C1 (stereo not drawn) [Example 208, N-({4-[(2-aminocyclohexyl)amino]-3-nitrophenyl}sulfonyl)-4-(4-{[2-(4-chlorophenyl)-4,4-dimethylcyclohex-1-en-1-yl]methyl}piperazin-1-yl)-2-(1H-indol-5-yloxy)benzamide] | 0.589 nM | 264 nM | > 660 nM
6 | CC1(C)CCC(CN2CCN(c3ccc(C(=O)NS(=O)(=O)c4ccc(OCC5(F)CCOCC5)c([N+](=O)[O-])c4)c(Oc4cccc5[nH]ccc45)c3)CC2)=C(c2ccc(Cl)cc2)C1 [Example 306, 4-(4-{[2-(4-chlorophenyl)-4,4-dimethylcyclohex-1-en-1-yl]methyl}piperazin-1-yl)-N-({4-[(4-fluorotetrahydro-2H-pyran-4-yl)methoxy]-3-nitrophenyl}sulfonyl)-2-(1H-indol-4-yloxy)benzamide] | 0.077 nM | 7.16 nM | 47.9 nM
7 | CC1(C)CCC(CN2CCN(c3ccc(C(=O)NS(=O)(=O)c4ccc(NCc5cncs5)c([N+](=O)[O-])c4)c(Oc4ccc5[nH]ccc5c4)c3)CC2)=C(c2ccc(Cl)cc2)C1 [Example 288, 4-(4-{[2-(4-chlorophenyl)-4,4-dimethylcyclohex-1-en-1-yl]methyl}piperazin-1-yl)-2-(1H-indol-5-yloxy)-N-({3-nitro-4-[(1,3-thiazol-5-ylmethyl)amino]phenyl}sulfonyl)benzamide] | 0.177 nM | 64.3 nM | > 660 nM
8 | CN(C)C1(CNc2ccc(S(=O)(=O)NC(=O)c3ccc(N4CCN(CC5=C(c6ccc(Cl)cc6)CC(C)(C)CC5)CC4)cc3Oc3ccc4[nH]ccc4c3)cc2[N+](=O)[O-])CCOCC1 [Example 207, 4-(4-{[2-(4-chlorophenyl)-4,4-dimethylcyclohex-1-en-1-yl]methyl}piperazin-1-yl)-N-{[4-({[4-(dimethylamino)tetrahydro-2H-pyran-4-yl]methyl}amino)-3-nitrophenyl]sulfonyl}-2-(1H-indol-5-yloxy)benzamide] | 0.218 nM | 120 nM | > 660 nM
9 | CC1(C)CCC(CN2CCN(c3ccc(C(=O)NS(=O)(=O)c4ccc(NCC5(CO)CCOCC5)c([N+](=O)[O-])c4)c(Oc4ccc5[nH]ccc5c4)c3)CC2)=C(c2ccc(Cl)cc2)C1 [Example 232, 4-(4-{[2-(4-chlorophenyl)-4,4-dimethylcyclohex-1-en-1-yl]methyl}piperazin-1-yl)-N-{[4-({[4-(hydroxymethyl)tetrahydro-2H-pyran-4-yl]methyl}amino)-3-nitrophenyl]sulfonyl}-2-(1H-indol-5-yloxy)benzamide] | 0.46 nM | 12.3 nM | 197 nM
10 | CC(C)n1cc(CN2CCN(c3ccc(C(=O)NS(=O)(=O)c4ccc(NCC5CCOCC5)c([N+](=O)[O-])c4)c(Oc4ccc5[nH]ccc5c4)c3)CC2)c(-c2ccc(Cl)cc2)cc1=O [Example 307, 4-(4-{[4-(4-chlorophenyl)-1-isopropyl-6-oxo-1,6-dihydropyridin-3-yl]methyl}piperazin-1-yl)-2-(1H-indol-5-yloxy)-N-({3-nitro-4-[(tetrahydro-2H-pyran-4-ylmethyl)amino]phenyl}sulfonyl)benzamide] | 3.73 nM | > 500 nM | > 660 nM
11 | CC1(C)CCC(CN2CCN(c3ccc(C(=O)NS(=O)(=O)c4cnc(OCC5(F)CCOCC5)c(C(F)(F)F)c4)c(Oc4cccc5[nH]ncc45)c3)CC2)=C(c2ccc(Cl)cc2)C1 [Example 410, 4-(4-{[2-(4-chlorophenyl)-4,4-dimethylcyclohex-1-en-1-yl]methyl}piperazin-1-yl)-N-{[6-[(4-fluorotetrahydro-2H-pyran-4-yl)methoxy]-5-(trifluoromethyl)pyridin-3-yl]sulfonyl}-2-(1H-indazol-4-yloxy)benzamide] | 0.055 nM | 13.9 nM | 102 nM
12 | CN1CCN(Nc2ccc(S(=O)(=O)NC(=O)c3ccc(N4CCN(CC5=C(c6ccc(Cl)cc6)CCC(O)C5)CC4)cc3Oc3ccc4[nH]ccc4c3)cc2[N+](=O)[O-])CC1 (stereo not drawn) [Example 226, 4-(4-{[2-(4-chlorophenyl)-5-hydroxycyclohex-1-en-1-yl]methyl}piperazin-1-yl)-2-(1H-indol-5-yloxy)-N-({4-[(4-methylpiperazin-1-yl)amino]-3-nitrophenyl}sulfonyl)benzamide] | 0.017 nM | 23 nM | 9.93 nM
13 | CC1(C)CCC(CN2CCN(c3ccc(C(=O)NS(=O)(=O)c4ccc(NCC5(N6CCOCC6)CCCCC5)c([N+](=O)[O-])c4)c(Oc4ccc5[nH]ccc5c4)c3)CC2)=C(c2ccc(Cl)cc2)C1 [Example 229, 4-(4-{[2-(4-chlorophenyl)-4,4-dimethylcyclohex-1-en-1-yl]methyl}piperazin-1-yl)-2-(1H-indol-5-yloxy)-N-[(4-{[(1-morpholin-4-ylcyclohexyl)methyl]amino}-3-nitrophenyl)sulfonyl]benzamide] | 49.4 nM | > 500 nM | > 660 nM
14 | CC1(C)CCC(CN2CCN(c3ccc(C(=O)NS(=O)(=O)c4ccc(NCCCn5ccnc5)c([N+](=O)[O-])c4)c(Oc4ccc5[nH]ccc5c4)c3)CC2)=C(c2ccc(Cl)cc2)C1 [Example 377, 4-(4-{[2-(4-chlorophenyl)-4,4-dimethylcyclohex-1-en-1-yl]methyl}piperazin-1-yl)-N-[(4-{[3-(1H-imidazol-1-yl)propyl]amino}-3-nitrophenyl)sulfonyl]-2-(1H-indol-5-yloxy)benzamide] | 0.14 nM | 85.7 nM | 325 nM
15 | O=C(NS(=O)(=O)c1ccc(NCC2CCOCC2)c([N+](=O)[O-])c1)c1ccc(N2CCN(CC3=C(c4ccc(Cl)cc4)CCC(N4CCCC4)C3)CC2)cc1Oc1ccc2[nH]ccc2c1 (stereo not drawn) [Example 272, 4-(4-{[2-(4-chlorophenyl)-5-pyrrolidin-1-ylcyclohex-1-en-1-yl]methyl}piperazin-1-yl)-2-(1H-indol-5-yloxy)-N-({3-nitro-4-[(tetrahydro-2H-pyran-4-ylmethyl)amino]phenyl}sulfonyl)benzamide] | 0.011 nM | 194 nM | > 660 nM
16 | COCCNc1ccc(S(=O)(=O)NC(=O)c2ccc(N3CCN(CC4=C(c5ccc(Cl)cc5)CC(C)(C)CC4)CC3)cc2Oc2cccc3[nH]ccc23)cc1[N+](=O)[O-] [Example 239, 4-(4-{[2-(4-chlorophenyl)-4,4-dimethylcyclohex-1-en-1-yl]methyl}piperazin-1-yl)-2-(1H-indol-4-yloxy)-N-({4-[(2-methoxyethyl)amino]-3-nitrophenyl}sulfonyl)benzamide] | 0.252 nM | 17.6 nM | 108 nM
17 | CC1(C)CCC(CN2CCN(c3ccc(C(=O)NS(=O)(=O)c4ccc(NN5CCCCC5)c([N+](=O)[O-])c4)c(Oc4cccc5[nH]ccc45)c3)CC2)=C(c2ccc(Cl)cc2)C1 [Example 283, 4-(4-{[2-(4-chlorophenyl)-4,4-dimethylcyclohex-1-en-1-yl]methyl}piperazin-1-yl)-2-(1H-indol-4-yloxy)-N-{[3-nitro-4-(piperidin-1-ylamino)phenyl]sulfonyl}benzamide] | 47.5 nM | > 500 nM | > 660 nM
